In patent US20260193173A1, “AMINO ACID-BENZOIC ACID OLIGOMERS AND METHODS OF USE THEREOF FOR TREATING CANCER” (Board of Regents, The University of Texas System, priority 2022, published 2026):

Tests used:
Bcl-2 = Bcl-2 (Homo sapiens, UniProt P10415); assay: Bcl-2 protein binding, fluorescence polarization assay
Excerpt: IC50 values were in the submicromolar range as determined by fluorescence polarization assay.

[1] = system: DU145 prostate cancer cells; assay: MTT assay, growth inhibition of prostate cancer cell line DU145; format: cell-based; settings: Homo sapiens, DU-145, incubated with DU145 cells for 72 hours
Procedure: FIGS. 3A-3C show % inhibition (determined by MTT assay) of disclosed compounds on prostate cancer cell line DU145. Compounds were incubated with DU145 cells for 72 hours, showing strong cell growth inhibition with IC50 of 0.15-0.7 μM.

Sequence of Bcl-2 (P10415 whole entry): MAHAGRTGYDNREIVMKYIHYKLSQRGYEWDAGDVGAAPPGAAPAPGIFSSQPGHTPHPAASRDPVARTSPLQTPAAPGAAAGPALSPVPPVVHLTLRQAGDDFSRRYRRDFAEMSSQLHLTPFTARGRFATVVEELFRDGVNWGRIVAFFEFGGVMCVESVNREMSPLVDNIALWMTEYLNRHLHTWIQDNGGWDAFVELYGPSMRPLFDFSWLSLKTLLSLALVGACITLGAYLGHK

| SMILES | IC50 (Bcl-2) [nM] | IC50 [1] [nM] |
| --- | --- | --- |
| CCC(C)C(NC(=O)c1ccc(N)c(OC)c1)C(=O)Nc1ccc(C(=O)NC(CCSC)C(=O)Nc2ccc(C(N)=O)cc2OCC(C)C)cc1OCC(C)C (centres unmarked) [Compound B10] | 1960 | 779 |
| CCC(C)C(NC(=O)c1ccc(NC(=O)C(NC(=O)c2ccc(N)c(OC)c2)C(C)CC)c(OCC(C)C)c1)C(=O)Nc1ccc(C(N)=O)cc1OCc1ccccc1 (centres unmarked) [Compound B9] | 1540 | 300 |
| COc1cc(C(=O)NC(Cc2ccc(O)cc2)C(=O)Nc2ccc(C(=O)NC(CCSC)C(=O)Nc3ccc(C(N)=O)cc3OCc3ccccc3)cc2OCC(C)C)ccc1N (centres unmarked) [Compound B12] | 599 | 702 |
| CC(C)COc1cc(C(=O)NC(CS)C(=O)Nc2ccc(C(=O)NC(Cc3ccccc3)C(=O)Nc3ccc(C(N)=O)cc3OCC(C)C)cc2OCC(C)C)ccc1N (centres unmarked) [Compound B11] | 1080 | 120 |
